Laboratory results published in patent US9115072B2, “Compounds and method for reducing uric acid” (WELLSTAT THERAPEUTICS CORPORATION, priority 2008, dated 2015).

Key:
[1] = test system: mice treated with the uricase inhibitor potassium oxonate; experiment: Uric acid excretion in urine of mice treated with the uricase inhibitor potassium oxonate; format: in vivo, mouse; settings: for Urine Uric Acid: urine collected between 3 and 5 hours after drug; for Effect on uric acid in urine versus the Oxonate control group (in words): urine collected between 3 and 5 hours after drug administration
Excerpt: The model to induce hyperuricemia involves the use of the uricase (urate oxidase) inhibitor potassium oxonate that causes a delay in the degradation of uric acid to allantoin. Humans have little or no uricase activity, so inhibition of this enzyme with potassium oxonate makes mouse uric acid processing more similar to that of humans. Male 11-week old C57/B16 mice (Harlan, Frederick, Md.) were used in the studies (8 per experimental group). Mice were receiving standard rodent chow that was removed one hour before administration of potassium oxonate. Mice were given an intraperitoneal injection (i.p.) of potassium oxonate (300 mg/kg) that was suspended in 0.5% hydroxypropylmethylcellulose (HPMC). […] Urine collection was performed at 1, 3 and 5 hours after drug treatments and uric acid was measured with a colorimetric assay (BioVision Research Products, Mountain View, Calif.).

[2] = test system: healthy, normal men and women; experiment: Single oral dose clinical study, blood/plasma uric acid levels (Examples 1 and 4); format: in vivo, human; settings: for Mean Percent Change (blood uric acid levels): before vs 24 hours after administration
Procedure: Five groups of 4 healthy, normal men and women received a single, oral administration of escalating doses of Compound BI (n=3 per group) or placebo capsules (n=1 per group) in a randomized, double blind clinical study. Blood uric acid levels were measured before and 24 hours after administration of study treatment. Compound BI was administered at doses of 50, 100, 200, 400 or 800 mg.
Plasma samples taken immediately prior to and at 1, 2, 4, 6, 12 and 24 hours after a single, oral administration of a test compound to 4 healthy, normal men and women in each of three groups as described above in Example 1 were analyzed to determine uric acid levels. Compound BI (n=3 per group) or placebo capsules (n=1 per group) were administered in a randomized, double blind clinical study. Plasma samples taken at the time points indicated from patients receiving Compound BI at doses of 200, 400 or 800 mg were stored at −70° C. and analyzed at a later time.

[3] = test system: healthy normal men and women; experiment: Seven-day once/twice daily dosing clinical study, blood/plasma uric acid levels (Examples 2 and 5); format: in vivo, human; settings: for Percent Change in Uric Acid Levels Following a Single Administration of Study Treatment, Mean Percent Change: 24 hours after the first administration; for Percent Change in Uric Acid Levels Following a Daily Administration of Study Treatment for Seven Days, Mean Percent Change: after 7 consecutive days; for Effect on blood uric acid levels (in words): 400 mg twice per day or 800 mg once per day groups
Procedure: Two groups of 8 healthy normal men and women received oral administration of either 800 mg Compound BI once per day (n=6 per group) or 400 mg Compound BI twice per day (n=6 per group) or placebo capsules (n=2 per group) in a randomized, double blind clinical study. Blood uric acid levels were measured before administration of study treatment, 24 hours after the first administration of study treatment and after 7 consecutive days of study treatment administration.
Sixteen men and women participating in a clinical study were randomly assigned to receive either placebo capsules (n=4 subjects), 400 mg Compound BI twice per day (n=6 subjects), or 800 mg Compound BI once per day (n=6 subjects) for seven consecutive days. Plasma samples taken prior to (Time 0) and at 1, 2, 4, 9, 11, 13, 18 and 24 hours after the initial administration of the test article on Day 7 of the study were stored at −70° C. and later analyzed for uric acid. (This Example 5 is a continuation of the experiment described in Example 2.)

[4] = target: T1, human URAT1 (Homo sapiens, UniProt Q96S37); experiment: URAT1 inhibition assay, [8-14C] urate uptake in hURAT1-HEK cells; format: cell-based; settings: 50 μM [8-14C] urate; for inhibition at 10 µM: drug concentration typically 10 micromolar, read-out: % of Inhibition (uric acid uptake)
T1 construct: The full-length hURAT1 cDNA was obtained from the vector pCMV6-XL5 and subcloned into the expression vector pCMV6-Neo
T1 sequence (Q96S37 1-553): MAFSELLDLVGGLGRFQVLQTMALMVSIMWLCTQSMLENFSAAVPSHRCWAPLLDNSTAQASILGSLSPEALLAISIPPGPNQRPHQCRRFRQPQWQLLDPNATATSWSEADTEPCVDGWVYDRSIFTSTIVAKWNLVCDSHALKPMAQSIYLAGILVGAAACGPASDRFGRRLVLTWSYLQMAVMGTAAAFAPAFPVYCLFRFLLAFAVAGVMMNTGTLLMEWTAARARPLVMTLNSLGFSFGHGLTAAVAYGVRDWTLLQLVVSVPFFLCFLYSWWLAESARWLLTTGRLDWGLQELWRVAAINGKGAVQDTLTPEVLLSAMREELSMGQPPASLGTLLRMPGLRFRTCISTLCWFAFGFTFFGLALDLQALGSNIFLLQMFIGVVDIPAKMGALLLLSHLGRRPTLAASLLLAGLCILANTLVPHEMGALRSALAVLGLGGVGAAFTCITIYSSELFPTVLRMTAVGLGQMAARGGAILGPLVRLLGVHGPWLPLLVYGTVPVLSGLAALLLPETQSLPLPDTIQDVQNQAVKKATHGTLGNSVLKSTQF
Procedure: A suitable assay involves transfection of cells (e.g. human embryonic kidney cells; “HEK”) with a vector encoding human URAT1, followed by determination of the ability of transfected cells to take up radiolabeled uric acid. The activity of compounds as URAT1 inhibitors is evaluated by their ability to block uric acid uptake by transfected cells.
Urate (50-60 mCi/mmol; American Radio Chemicals, Cat. No. ARC0513).
Plasmid vector pCMV6-XL5 containing hURAT1 cDNA (Cat. No. SC125624) and the expression vector pCMV6-Neo (Cat. No. pCMVNEO) were obtained from OriGene Technologies, Inc. The full-length hURAT1 cDNA was obtained from the vector pCMV6-XL5 and subcloned into the expression vector pCMV6-Neo to create the hURAT1 expression plasmid pCMV6-hURAT1. The sequences were verified by automatic DNA sequencing.
For transfection experiments, cells were plated on 60 mm dishes in 1 ml media per dish. […] Stable transfectants expressing hURAT1 (herein after referred as hURAT1-HEK cells) or cells having only the expression vector pCMV6-Neo (herein after referred as mock-HEK cells) were verified using reverse transcription polymerase chain reaction (RT-PCR) methods.
Before the uptake assay started, the culture medium was removed and the cells were incubated for 5 min in 0.6 ml of HBSS. After that HBSS was removed, the prepared reaction solutions were added into each well and incubated for 5 min at room temperature. Then the reaction solution was removed, cells were washed twice with 0.6 ml of cold HBSS and lysed with 0.2 ml of 0.1 M NaOH for 20 min. […] Test compounds were dissolved in DMSO and the same concentration of DMSO was added into the wells of mock-HEK cells and the hURAT1-HEK cells that didn't contain test compounds. For each test compound, the uptake assay was performed 2 times and carried out in triplicate. Urate uptake of the cells for each test condition was presented as the average percent inhibition in comparison to the DMSO control. The radioactivity values obtained for the wells that contained DMSO were taken as 100% uptake of the cells. The observed concentration-percent inhibition data were fitted to a sigmoidal concentration-effect model, where: IC50^Slope=[(100*Conc^Slope)/% Inhibition]−Conc^Slope
Additional drug concentrations were tested for determination of IC-50 values for some compounds (Table 6).

[5] = 100 mg/kg p.o. after oxonate 300 mg/kg i.p.

## Oc1ncnc2[nH]ncc12 [Allopurinol]
[1]; 20 mg/kg p.o. after oxonate 300 mg/kg i.p.
  Urine Uric Acid: 79 mg/dL
[1]
  Effect on uric acid in urine versus the Oxonate control group (in words): reduced the concentration of uric acid in urine

## Cc1cccc(C)c1COc1cccc(C(=O)CCC(=O)O)c1 [Compound BI, 4-(3-(2,6-Dimethylbenzyloxy)phenyl)-4-oxobutyric acid]
[1]; [5]
  Urine Uric Acid: 293 mg/dL
[1]
  Effect on uric acid in urine versus the Oxonate control group (in words): significant increase in excreted uric acid
[2]; single dose 200, 400 or 800 mg, FIG. 2
  Effect on plasma uric acid levels over 24 hours (in words): significant, dose-dependent reductions
[2]; single oral dose 50 mg
  Mean Percent Change (blood uric acid levels): −8.8%
[2]; single oral dose 100 mg
  Mean Percent Change (blood uric acid levels): −13.4%
[2]; single oral dose 200 mg
  Mean Percent Change (blood uric acid levels): −18.9%
[2]; single oral dose 400 mg
  Mean Percent Change (blood uric acid levels): −35.0%
[2]; single oral dose 800 mg
  Mean Percent Change (blood uric acid levels): −32.7%
[2]; single oral dose 50, 100, 200, 400 or 800 mg, 24 hours
  Effect on blood uric acid levels (in words): significant, dose-dependent reduction
[3]; 400 mg bid
  Percent Change in Uric Acid Levels Following a Single Administration of Study Treatment, Mean Percent Change: −54.0%
  Percent Change in Uric Acid Levels Following a Daily Administration of Study Treatment for Seven Days, Mean Percent Change: −56.7%
[3]; 400 mg twice per day or 800 mg once per day for seven days, FIG. 3
  Plasma uric acid levels at Time 0 on Day 7 compared to Time 0 on the first day and to placebo (in words): significantly reduced
[3]; 800 mg qd
  Percent Change in Uric Acid Levels Following a Single Administration of Study Treatment, Mean Percent Change: −45.3%
  Percent Change in Uric Acid Levels Following a Daily Administration of Study Treatment for Seven Days, Mean Percent Change: −53.2%
[3]; daily administration for 7 days
  Effect on blood uric acid levels (in words): significant reduction
[3]; single dose
  Effect on blood uric acid levels (in words): significant reduction
[4]
  IC50: 950 nM
  inhibition at 10 µM: 86.1%

## CCc1oc2ccccc2c1C(=O)c1cc(Br)c(O)c(Br)c1 [Benzbromarone]
[1]; 30 mg/kg p.o. after oxonate 300 mg/kg i.p.
  Urine Uric Acid: 185 mg/dL
[1]; [5]
  Urine Uric Acid: 173 mg/dL
[1]
  Effect on uric acid in urine versus the Oxonate control group (in words): induced an increase in uric acid concentration in urine, though to lesser degree than Compound BI

## Cc1cccc(C)c1C(=O)Oc1cccc(C(=O)CCC(=O)O)c1 [DP, 4-(3-(2,6-Dimethylbenzoyloxy)phenyl)-4-oxobutanoic acid]
[4]
  inhibition at 10 µM: 60.5%

## Cc1cccc(C)c1COc1ccccc1CC(=O)O [EA, 2-(2-(2,6-Dimethylbenzyloxy)phenyl)acetic acid]
[4]
  inhibition at 10 µM: 49%
